Source: US8329413B2, “Glycoproteomic probes for fluorescent imaging of fucosylated glycans in vivo” (Academia Sinica, priority 2007, dated 2012)
Where a name gives a salt, the structure may show the parent alone.

Experiments:
[1] = system: human alpha1-acid glycoprotein (AGP); test: Fluorescent labeling of AGP fucosylated by FucT V, SDS/PAGE visualized by UV light; type: biochemical; conditions: AGP fucosylated with FucT V and GDP-fucose analog 8, 9 or 10, then labeled with 1a or 1b
Excerpt: Briefly, fucose analogs 4 and 5 are converted to the corresponding 1-bromides, which then are substituted directly by a phosphate group. […] Therefore, TiBr4 is used instead, as described by Srivastava. The fucose-1-phosphates are converted to the corresponding GDP-fucose analogs by using 1H-tetrazole as a catalyst. The tolerability of GDP-fucose analogs 8 and 9 for human alpha-1,3-fucosyltranseferases (FucTs) II-VII is confirmed by using a standard microtiter plate assay. They are then used to elaborate the glycoconjugate substrate, human alpha1-acid glycoprotein (AGP), an acute-phase protein. As fucosylation of AGP is associated with inflammatory diseases, the degree of fucosylation of AGP could be a potential diagnostic or prognostic marker. AGP was fucosylated by using FucT V in the presence of GDP-fucose analogs 8 or 9. After gel filtration, the fucosylated AGP is labeled by using the corresponding naphthalimide 1a or 1b for 4 h at room temperature. Labeled protein is analyzed by SDS/PAGE and visualized by UV light (365 nm). […] Treated protein was separated by SDS/PAGE and visualized by UV light (Top) and Coomassie blue staining (CBB) (Middle). (Bottom) Modified GDP-fucose.
Human alpha1-acid glycoprotein (0.33 mg/mL), pretreated with alpha-fucosidase, was incubated with human alpha-1,3-fucosyltransferase V (100 mU/mL) in MOPS buffer (50 mM, pH 7.2) containing 150 mM NaCl, 10 mM MnCl2, 4 mM ATP, 0.2 mM GDP-fucose analog (8-10). After incubation at 37° C. for 8 h, additional GDP-fucose derivative (final 0.4 mM) was added and the reaction mixture was incubated at 37° C. for 12 h. […]
The fucosylated glycoconjugate was dissolved in HEPES buffer (50 mM, pH 7.6), and added to a solution containing CuSO4 (0.2 mM), 1.0 mM sodium ascorbate, the tris(triazolyl)amine ligand (20) (0.2 mM, stock in DMSO), and the appropriate naphthalimide ligation probe 1a or 1b (0.1 mM, stock in DMSO, final concentration of DMSO; 10%)). After 1 h at room temperature, the mixture was passed through NAP-5 column in water and lyophilized, and analyzed by SDS-PAGE.

[2] = Rapid screening of L-amino acids as cycloaddition ligand catalysts using fluorogenic probe 1a; conditions: L-amino acid 1.0 mM, CuSO4 1.0 mM, 1a + 2a
Method: A fluorescence quenching technique was used to identify catalysts for the copper-catalyzed cycloaddition. […] In such a screen, the reaction between 1a and 2a is performed in microtiter plates in the presence of individual amino acids. […] (Upper) The microtiter plate was visualized under long wavelength UV lamp (365 nm). (Lower) The fluorescent intensities of each well are measured by a fluorescence plate reader.
The effect of the ligand effect on the reaction rate was visualized by holding the 96-well microtiter plate under a long wavelength UV lamp (365 nm) and analyzed with a standard fluorescence multiplate reader.
The overall volume in each vial was 250 microliters containing a solution of 1,8-naphthalimide 1a (0.5 mM), azidofucose 2a (1.0 mM), CuSO4 (1.0 mM), L-amino acid (1.0 mM) and sodium ascorbate (5.0 mM) in DMSO/water (56% DMSO). The reactions were allowed to stand at room temperature for 24 hours. The reaction mixture was diluted 60 times with 50 mM HEPES buffer (pH 7.2) and then transferred to 96-well microtiter plate, and fluorescence intensity (excitation, 365 nm; emission, […]) was determined with a Fusion plate reader (Perkin Elmer/Packard).

[3] = Stoichiometric study of L-histidine in the cycloaddition of 1a and 2a; conditions: relative to copper ion; L-histidine 0-3.0 mM, CuSO4 1.0 mM
Method: The overall volume in each vial was 250 microliters containing a solution of 1,8-naphthalimide 1a (0.5 mM), azidofucose 2a (1.0 mM), CUSO4 (1.0 mM), L-histidine (0-3.0 mM) and sodium ascorbate (5.0 mM) in DMSO/water (56% DMSO). The reactions were allowed to stand at room temperature for 24 hours. The catalytic activity was determined by the same method described above (FIG. 10).
In this condition, 60% of 1a was converted to the product 10 after 1 h at room temperature and the reaction was completed in less than 6 h. To confirm the effects of L-His on the reaction, we measured the time-course of the reaction by fluorescence spectrometer. Conditions: 1,8-naphthalimide 1a (0.1 mM), azidofucose 2a (1.0 mM), CuSO4 (2.0 mM), L-histidine (0 or 4.0 mM) and sodium ascorbate (100 mM) in 50 mM HEPES buffer (containing 6% DMSO). After mixing all reagents, the fluorescence intensity was measured in 5 min intervals at 37° C. by a fluorescence spectrophotometer (FIG. 11). […] Fluorescence intensities were monitored at λ ex 357 nm and λem 462 nm.

Jurkat cells = test: Fluorescent labeling at the cell surface by flow cytometry; type: cell-based
Excerpt: In another aspect, the disclosure provides a method of labeling of azide-tagged glycoconjugates expressed on the cell surface by using the alkyne click-activated fluorogenic probe 1a. First, the effect of various Cu(I) sources on the copper-catalyzed cell-surface labeling reaction was investigated. Cu(I) is typically generated including in situ by the reduction of Cu(II) by conventional reducing agents or the direct addition of Cu(I) as a salt. To label azido tagged glycoconjugates (in this case, cellular glycans that had incorporated azidofucose), we investigated both methods by using in situ Cu(II) reduction with ascorbic acid and Tris(carboxyethyl)phosphine (TCEP) and direct addition of Cu(I), via CuBr, in CuAAC reactions. Jurkat cells were cultured in the presence of globally acetylated 6-azido-L-fucose 12 (acetylation increases cellular uptake of the sugar) so that they will incorporate the analog via the salvage pathway. After incubating for 3 days, the cells were labeled with 1a in the presence of the above listed Cu(I) sources, and the fluorescent intensities were measured by flow cytometry. […]
Jurkat cells were cultured in RPMI medium 1640 (Invitrogen, Carlsbad, Calif.), supplemented with 10% FCS and peracetylated fucose 11 or azidofucose 12 (200 μM) at a density of 2×10^5 cells per ml for 3 days, in the presence or absence of tunicamycin (5 μg/ml). […] The fluorescence intensity was detected and acquired by BD LSR II (BD Biosciences, San Jose, Calif.) and FACSDiva software (BD Biosciences). […] For detection of the fluorescent adduct with probe 1a, a 351-nm UV laser was used for excitation, and emission was detected by a 440/40 band-pass filter.
Jurkat cells were cultured in RPMI 1640 (Invitrogen, Carlsbad, Calif.) supplemented with 10% FCS and peracetylated fucose 11 or azidofucose 12 ([…]) at the density of 2×10^5 cells/mL for 3 days, in the presence or absence of tunicamycin ([…]). […] The fluorescence intensity was detected and acquired by BD LSR II (BD Biosciences, San Jose, Calif.) and FACSDiva software (BD Biosciences). […]

[4] = cited from earlier work
Hep 3B = test: Fluorescence microscopy imaging of intracellular fucosylated glycoconjugates; type: cell-based, human
Method: The human hepatoma cell line, Hep 3B, was incubated with acetylated azidofucose 12. After 3 days, the cells were fixed, washed with PBS, and then stained with 1a for visualization. […] The labeling reaction was performed in the presence of Cu(I) after the treatment with control fucose (A) or azidofucose 12 (B), or in the absence of Cu(I) after the treatment with control fucose (C) or azidofucose 12 (D). (Scale bar: 20 μm.)
In another aspect of the disclosure, double-staining experiments were performed to find out whether the punctate pattern observed from azidofucose marks specific cellular compartments. […] Azidofucose treated cells were fixed and labeled with probe 1a and then further treated with WGA lectin conjugated with Alexa Fluor 594, and the cells were imaged with confocal fluorescence microscope, using the appropriate filter sets. […] (Scale bar: 20 μm.)
The human hepatocellular carcinoma cell line, Hep3B (American Type Culture Collection, Manassas, Va.), was cultured in Opti-MEM (Invitrogen) supplemented with 0.1% FCS and treated with natural fucose or peracetylated azidofucose 12 (200 μM) for 3 days. The cells then were transferred to a coverslip glass slide and cultured overnight in the same medium. […] After labeling, cells were washed with PBS, and fluorescence images were obtained by using Axiovert 200M (Carl Zeiss, Inc., Thornwood, N.Y.). […]

In the case of `C#Cc1ccc2c3c(cccc13)C(=O)N(CC)C2=O` [Compound 1a, 4-Ethynyl-N-ethyl-1,8-naphthalimide], the “fluorescent band of labeled AGP on SDS/PAGE under UV light (365 nm)” value [1] is reported as “clear fluorescent bands”.

For `N[C@@H](Cc1c[nH]cn1)C(=O)O` [Histidine, histidine], the “enhancement of reaction rate compared to ligand-free conditions” value ([2]; 24 h room temperature) was “about 6 times” and the “amount of ligand giving maximum effect on the catalysis” value [3] was 2.0 mol equivalent.

In the case of tunicamycin, the “effect on cell surface fluorescence” value (Jurkat cells; Jurkat cells co-treated with azidofucose, labeled with 1a) is reported as “suppressed cell surface fluorescence”.

In the case of `C=C[C@H]1C[N@@]2CC[C@H]1C[C@H]2[C@H](O)c1ccnc2ccc(OC)cc12` [Quinine sulfate], the “quantum yield of fluorescent standard” value ([4]; standard value) is listed as 0.54.

For `NCCCC[C@H](N)C(=O)O` [lysine], the “effect on cycloaddition reaction” value [2] was “obstructive to the reaction”.

With `N[C@@H](Cc1c[nH]c2ccccc12)C(=O)O` [tryptophan] the “enhancement of cycloaddition rates” value ([2]; 24 h room temperature) was “approximately 2 fold”.

With `N[C@@H](Cc1ccc(O)cc1)C(=O)O` [tyrosine] the “enhancement of cycloaddition rates” value ([2]; 24 h room temperature) was “approximately 2 fold”.

For `N[C@@H](CS)C(=O)O` [cysteine], the “effect on cycloaddition reaction” value [2] was “obstructive to the reaction”.

In the case of `CC(=O)OC1O[C@@H](CN=[N+]=[N-])[C@@H](OC(C)=O)[C@@H](OC(C)=O)[C@@H]1OC(C)=O` (stereo partly shown) [Compound 12], the “labeling pattern after staining with 1a vs control fucose” value (Hep 3B; Hep 3B, 3 days, fixed cells, Cu(I)) is reported as “distinct punctate-labeling pattern”, the “co-localization with Alexa Fluor 594-conjugated WGA lectin (Golgi marker)” value (Hep 3B; fixed cells labeled with probe 1a, confocal microscopy) is reported as “overlapped perfectly” and the “cell fluorescence after CuAAC labeling with 1a vs natural fucose” value (Jurkat cells; Jurkat cells, 3 days, all three copper sources, flow cytometry) is reported as “distinct increase in fluorescence”. For the same compound, the “fluorescent signal after labeling with biotinylated alkyne 13 and avidin-fluorescein vs fucose” value (Jurkat cells; Jurkat cells, flow cytometry) was “distinct increase in fluorescent signal”.

With `N[C@@H](CCC(=O)O)C(=O)O` [glutamic acid] the “effect on cycloaddition reaction” value [2] was “obstructive to the reaction”.

In the case of `C[C@@H]1O[C@H](OP(=O)(O)OP(=O)(O)OC[C@H]2O[C@@H](n3cnc4c(=O)[nH]c(N)nc43)[C@H](O)[C@@H]2O)[C@@H](O)[C@H](O)[C@@H]1O` [Compound 10, GDP-fucose], the “fluorescent band of labeled AGP on SDS/PAGE under UV light (365 nm)” value [1] is reported as “No band was present”.

For `Nc1ccc2c3c(cccc13)C(=O)NC2=O` [4-amino-1,8-naphthalimide], the “emission λmax” value ([4]; long wavelength emission, basis of probe design) is listed as 540-550 nm.
